Test results from doi:10.1101/2025.07.01.662521v3, “Ligand-induced Conformational Plasticity of the CTLH E3 Ligase Receptor GID4” (biorxiv, 2026).
Where two headings read alike, the source gives them in different places.

Columns and labels:
GID4 [1] = biological target: T1, GID4 (Homo sapiens, UniProt Q8IVV7); experiment: biochemical; set-up: SPR binding affinity to immobilized biotinylated GID4; details: read-out: KD by SPR
T1 construct: residues 116-300; N-terminal Strep-SUMO-3C-6xHis-Avi, HRV-3C cleaved, Avi-tag kept and biotinylated; E. coli BL21(DE3)
T1 sequence (Q8IVV7 116-300): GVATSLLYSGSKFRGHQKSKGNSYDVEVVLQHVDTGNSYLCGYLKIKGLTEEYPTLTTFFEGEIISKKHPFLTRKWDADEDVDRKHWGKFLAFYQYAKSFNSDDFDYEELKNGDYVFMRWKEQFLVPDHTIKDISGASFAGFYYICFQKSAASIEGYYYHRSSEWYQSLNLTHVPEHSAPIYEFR
Experimental: (§1) Following the identification of the binding pocket and the key interactions of the initial fragment, we initiated the synthesis of a series of analogs to explore the structure-activity relationship (SAR) (Table 1). The resulting changes in affinity were evaluated using surface plasmon resonance (SPR) and differential scanning fluorimetry (DSF). […] In the next step, we replaced the 3-Cl group to find an additional potency boost. […] All constructs were verified by sequencing. Protein was expressed by transforming plasmid into chemically competent recombinant E. coli BL21(DE3) strain. E coli was cultured in LB medium supplemented with 50 µg/mL kanamycin in shaker flasks at 37 °C and 160 rpm. Once an optical density at 600 nm (OD600) reached 0.5-0.6, protein expression was induced by an addition of 0.1 mM IPTG.

GID4 [2] = biological target: T2, GID4 (Homo sapiens, UniProt Q8IVV7); set-up: Differential scanning fluorimetry, thermal shift of GID4; details: binder
T2 construct: residues 116-300, N-terminal 6xHis-SUMO tag (DSF construct)
T2 sequence (Q8IVV7 1-300): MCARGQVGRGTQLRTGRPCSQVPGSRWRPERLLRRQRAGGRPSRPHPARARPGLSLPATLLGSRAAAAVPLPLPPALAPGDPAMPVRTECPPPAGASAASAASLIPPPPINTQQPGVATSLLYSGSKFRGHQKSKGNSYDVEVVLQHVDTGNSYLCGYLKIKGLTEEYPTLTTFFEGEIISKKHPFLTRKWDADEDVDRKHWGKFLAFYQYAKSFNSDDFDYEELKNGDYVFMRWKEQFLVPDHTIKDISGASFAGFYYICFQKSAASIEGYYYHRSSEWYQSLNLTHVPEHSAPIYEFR
Experimental: Following the identification of the binding pocket and the key interactions of the initial fragment, we initiated the synthesis of a series of analogs to explore the structure-activity relationship (SAR) (Table 1). The resulting changes in affinity were evaluated using surface plasmon resonance (SPR) and differential scanning fluorimetry (DSF). […] In the next step, we replaced the 3-Cl group to find an additional potency boost. […] MATERIALS AND METHODS Recombinant Protein Expression and Purification GID4 Expression and Purification Human Glucose-induced degradation protein 4 homolog (Gid4, UniProt ID: Q8IVV7) residues 124-289 were cloned into a vector to generate a N-terminal 6xHis-SUMO-tag for crystallography studies, residues 116-300 were cloned into a vector to generate a N-terminal 6xHis-SUMO-tag for DSF studies and residues 116-300 were cloned into a vector to generate a N-terminal Strep-SUMO-3C-6xHis-AVI-tag for SPR experiments. All constructs were verified by sequencing. Protein was expressed by transforming plasmid into chemically competent recombinant E. coli BL21(DE3) strain. E coli was cultured in LB medium supplemented with 50 µg/mL kanamycin in shaker flasks at 37 °C and 160 rpm. Once an optical density at 600 nm (OD600) reached 0.5-0.6, protein expression was induced by an addition of 0.1 mM IPTG.

GID4 [3] = biological target: T1, GID4; experiment: SPR; assay type: binding
HiBiT-GID4(FL) = biological target: T3, HiBiT-GID4(FL) (Homo sapiens, UniProt Q8IVV7); set-up: species or system HEK293T; HiBiT cellular thermal shift of full-length GID4, luminescence, delta Tagg; details: binder
T3 construct: full length, N-terminal HiBiT tag, stably expressed in HEK293T (piggyBac)
T3 sequence (Q8IVV7 1-300): T2 sequence (Q8IVV7 1-300)
From the text: (§2) Following the confirmation of cellular target engagement, we assessed the ability of GID4 to induce targeted protein degradation by synthesizing a panel of GID4-BRD4 bifunctional compounds. We utilized our lead ligand 14 together with a well-known BRD4 ligand JQ1, exploring a range of standard linkers with varying exit vectors and lengths, including rigid alkyl, and flexible PEG (2x, or 4xPEG) (Figure 6A). […] We assessed binary interactions with GID4 and BRD4, as well as the ternary complex formation by SPR and HTRF (Figure 6 and Table S2). All bifunctional compounds, except for 26, retained high affinity for BRD4 (K ^BRD4 =0.006-0.02 µM). […] Crucially, all degraders equipped with the active JQ1 warhead mediated ternary complex formation between GID4 and BRD4 (Figure 6 B-C). We further utilized NanoBRET assay to confirm BRD4 engagement, in both intact and lysed HEK293T cells (Table S2). […] This discrepancy indicates potential permeability limitations or active efflux of the bifunctional molecules. Despite successful BRD4 engagement, none of the degraders stabilized GID4 in the intracellular engagement assay, resulting in negative ΔTagg values (Table S2). This was consistent across all compounds, independent of linker length, composition, or exit vector. Consequently, no degradation of BRD4 was observed (Figures S11–S13), highlighting that while ternary complex formation is achievable in vitro, the physicochemical properties of these GID4-based PROTACs currently limit their intracellular efficacy.

GID4 [4] = biological target: T1, GID4; set-up: SPR binding affinity to immobilized biotinylated GID4; details: binder
Experimental: as §1

BRD4 = BRD4 (Homo sapiens, UniProt O60885); set-up: SPR binary binding affinity to BRD4; details: binder
From the text: as §2

Row | Structure (SMILES) | Kd (GID4 [1]) [nM] | ΔTm by DSF (°C) (GID4 [2]) | also measured
1 | COC1CCCN(C(=O)c2cc(-c3cc(F)cc(N=C(N)N4CCC(C)(C)CC4)c3)oc2C)C1 (racemic) [compound 19] | 50 | 7.1 ± 0.01 °C | –
2 | COCCOCCC1CCCN(C(=O)c2cc(-c3cc(F)cc(N=C(N)N4CCC(C)(C)CC4)c3)oc2C)C1 (racemic) [compound 21] | 50 | 6.8 ± 0.04 °C | –
3 | CC(=O)N1CCN(CC2CCCN(C(=O)c3cc(-c4cc(F)cc(N=C(N)N5CCC(C)(C)CC5)c4)oc3C)C2)CC1 (racemic) [compound 23] | 90 | 6.4 ± 0.02 °C | –
4 | NC(=Nc1cccc(Cl)c1)N1CCCCC1 [compound 2] | – | 1.6 ± 0.13 °C | Kd (GID4 [3]; read-out: KD): 23000 nM
5 | NC(=Nc1cccc(F)c1)N1CCCCC1 [compound 3] | – | 3.3 ± 0.06 °C | Kd (GID4 [3]; read-out: KD): 12000 nM
6 | NC(=Nc1cc(F)cc(Cl)c1)N1CCCCC1 [compound 4] | – | 2.8 ± 0.08 °C | Kd (GID4 [3]; read-out: KD): 8160 nM
7 | CC1CCCCN1C(N)=Nc1cc(F)cc(Cl)c1 (centres unmarked) [compound 5] | – | 3.3 ± 0.04 °C | Kd (GID4 [3]; read-out: KD): 2870 nM
8 | CC1CCN(C(N)=Nc2cc(F)cc(Cl)c2)CC1 [compound 6] | – | 3.2 ± 0.08 °C | Kd (GID4 [3]; read-out: KD): 2940 nM
9 | CC1CCCN(C(N)=Nc2cc(F)cc(Cl)c2)C1 (centres unmarked) [compound 7] | – | 3.3 ± 0.03 °C | Kd (GID4 [3]; read-out: KD): 4120 nM
10 | Cc1ccc(-c2cc(F)cc(N=C(N)N3CCCCC3C)c2)o1 (centres unmarked) [compound 8] | – | 4.3 ± 0.05 °C | Kd (GID4 [3]; read-out: KD): 940 nM
11 | Cc1ccc(-c2cc(F)cc(N=C(N)N3CCC(C)CC3)c2)o1 [compound 9] | – | – | Kd (GID4 [3]; PBS pH 7.4, 0.05% P-20, 1 mM DTT, 1% DMSO, biotinylated GID4 immobilised on SA chip, read-out: KD): 730 nM
12 | CNC(=O)c1cc(-c2cc(F)cc(N=C(N)N3CCC(C)(C)CC3)c2)oc1C [compound 11] | 310 | 4.8 ± 0.07 °C | –
13 | Cc1oc(-c2cc(F)cc(N=C(N)N3CCC(C)(C)CC3)c2)cc1C(=O)N(C)C [compound 12] | 60 | 6.9 ± 0.18 °C | –
14 | Cc1oc(-c2cc(F)cc(N=C(N)N3CCC(C)(C)CC3)c2)cc1C(=O)Nc1ccccc1 [compound 13] | 1430 | 3.9 ± 0.03 °C | –
15 | Cc1oc(-c2cc(F)cc(N=C(N)N3CCC(C)(C)CC3)c2)cc1C(=O)N1CCCCC1 [compound 14] | – | 7.7 ± 0.05 °C | Kd (GID4 [3]; read-out: KD^GID4): 30 nM
16 | Cc1oc(-c2cc(F)cc(/N=C(/N)N3CCC(C)(C)CC3)c2)cc1C(=O)N1CCN(C)CC1 [compound 15, 15] | 120 | 5.9 ± 0.08 °C | –
17 | Cc1oc(-c2cc(F)cc(/N=C(/N)N3CCC(C)(C)CC3)c2)cc1C(=O)N1CCOCC1 [compound 16, 16] | 90 | 6.2 ± 0.01 °C | –
18 | COC1CCN(C(=O)c2cc(-c3cc(F)cc(N=C(N)N4CCC(C)(C)CC4)c3)oc2C)CC1 [compound 18] | 130 | 7.1 ± 0,04 °C | –
19 | COCCOCCC1CCN(C(=O)c2cc(-c3cc(F)cc(N=C(N)N4CCC(C)(C)CC4)c3)oc2C)CC1 [compound 20] | 50 | 6.5 ± 0,03 °C | –
20 | CC(=O)N1CCN(CC2CCN(C(=O)c3cc(-c4cc(F)cc(N=C(N)N5CCC(C)(C)CC5)c4)oc3C)CC2)CC1 [compound 22] | 140 | 5.9 ± 0.04 °C | –
21 | Cc1oc(-c2cc(F)cc(/N=C(/N)N3CCC(C)(C)CC3)c2)cc1C(=O)N1CCC(CN2CCN(C(=O)C[C@@H]3N=C(c4ccc(Cl)cc4)c4c(sc(C)c4C)-n4c(C)nnc43)CC2)CC1 [compound 24, 24] | – | – | GID4 intracellular target engagement ΔTagg [ºC] (HiBiT-GID4(FL)): -1.7 ± 1.2 °C; Kd (GID4 [4]): 320 nM; Kd (BRD4): 13 nM
22 | Cc1oc(-c2cc(F)cc(/N=C(/N)N3CCC(C)(C)CC3)c2)cc1C(=O)N1CCCC(CN2CCN(C(=O)C[C@@H]3N=C(c4ccc(Cl)cc4)c4c(sc(C)c4C)-n4c(C)nnc43)CC2)C1 (some centres unmarked) [compound 25, 25] | – | – | GID4 intracellular target engagement ΔTagg [ºC] (HiBiT-GID4(FL)): -1.4 ± 0.3 °C; Kd (GID4 [4]): 500 nM; Kd (BRD4): 20 nM
23 | Cc1oc(-c2cc(F)cc(/N=C(/N)N3CCC(C)(C)CC3)c2)cc1C(=O)N1CCC(CN2CCN(C(=O)C[C@H]3N=C(c4ccc(Cl)cc4)c4c(sc(C)c4C)-n4c(C)nnc43)CC2)CC1 [compound 26] | – | – | GID4 intracellular target engagement ΔTagg [ºC] (HiBiT-GID4(FL)): -2 ± 0.6 °C; Kd (GID4 [3]; PBS pH 7.4, 0.05% P-20, 1 mM DTT, 1% DMSO, biotinylated GID4 immobilised on SA chip, read-out: KD^GID4): 630 nM
24 | Cc1oc(-c2cc(F)cc(/N=C(/N)N3CCC(C)(C)CC3)c2)cc1C(=O)N1CCCC(OCCOCCOCCNC(=O)C[C@@H]2N=C(c3ccc(Cl)cc3)c3c(sc(C)c3C)-n3c(C)nnc32)C1 (some centres unmarked) [compound 28, 28] | – | – | GID4 intracellular target engagement ΔTagg [ºC] (HiBiT-GID4(FL)): -2.6 ± 3.7 °C; Kd (BRD4): 16 nM
25 | Cc1oc(-c2cc(F)cc(/N=C(/N)N3CCC(C)(C)CC3)c2)cc1C(=O)N1CCC(OCCOCCOCCOCCOCCNC(=O)C[C@@H]2N=C(c3ccc(Cl)cc3)c3c(sc(C)c3C)-n3c(C)nnc32)CC1 [compound 29, 29] | – | – | GID4 intracellular target engagement ΔTagg [ºC] (HiBiT-GID4(FL)): 0.1 ± 0.4 °C; Kd (BRD4): 6 nM
26 | Cc1oc(-c2cc(F)cc(/N=C(/N)N3CCC(C)(C)CC3)c2)cc1C(=O)N1CCCC(OCCOCCOCCOCCOCCNC(=O)C[C@@H]2N=C(c3ccc(Cl)cc3)c3c(sc(C)c3C)-n3c(C)nnc32)C1 (some centres unmarked) [compound 30, 30] | – | – | GID4 intracellular target engagement ΔTagg [ºC] (HiBiT-GID4(FL)): -0.3 ± 1.0 °C; Kd (BRD4): 6 nM
